Experimental data from article PMC3894558, “Chemical signatures and new drug targets for gametocytocidal drug development” (Scientific Reports, 2014).
Counter-ions that a name gives are not always drawn. Like-named read-outs stand apart in the source and are kept apart here. Each block holds one compound with its values, some of them ahead of it.

Columns and labels:
[1] = tested on: P. falciparum 3D7 gametocytes; test: alamarBlue gametocyte viability assay, strain 3D7; type: cell-based, Plasmodium falciparum
[2] = tested on: P. falciparum asexual parasites; parameters: method as in earlier work; settings: SI Table 3, previous screens, cited from earlier work; for IC50: read-out: Activity against asexual parasites IC50
HepG2 cells = settings: for IC50 in HepG2 cells / IC50: 11 concentrations, 1:3 dilution, Inactive = no significant activity at 46 µM; for % Max response: HepG2 cells; for IC50: read-out: IC50 in HepG2 cells
Description: Growth medium was made with Dulbecco's Modified Eagle Medium with 10% fetal bovine serum (FBS).

[3] = tested on: P. falciparum HB3 gametocytes; test: alamarBlue gametocyte viability assay, strain HB3; type: cell-based, Plasmodium falciparum
Protocol: (§1) Briefly, gametocyte cultures were set up at 0.1% parasitemia and on days 9–10 treated with 50 mM N-acetylglucosamine (NAG) to block further asexual growth. Stage III–V gametocytes were isolated by Percoll density gradient centrifugation on day 12 and returned to culture for 24 hrs before being used in the assay[9].
(§2) Briefly, 2.5 μl/well incomplete medium was dispensed into each well of 1,536-well plates using the Multidrop Combi followed by 23 nl compound transferring using the NX-TR Pintool (WAKO Scientific Solutions, San Diego, CA). Then, 2.5 μl/well of gametocytes was dispensed with a seeding density of 20,000 cells/well using the Multidrop Combi. The assay plates were incubated for 72 hrs at 37°C with 5% CO2.

[4] = tested on: P. falciparum Dd2 gametocytes; test: alamarBlue gametocyte viability assay, strain Dd2; type: cell-based, Plasmodium falciparum
Protocol: as §1, §2

[5] = Plasmodium falciparum, 3D7, SI Table 3, structure clusters, read-out: Activity against gametocytes Efficacy (% response)
[6] = Plasmodium falciparum, 3D7, SI Table 3, structure clusters, read-out: Activity against gametocytes IC50
[7] = SI Table 3, structure clusters, read-out: Activity against gametocytes IC50
[8] = P. falciparum 3D7 gametocytes, mean of at least 3 independent experiments, read-out: Gametocyte IC50
[9] = strain profiling; 11 concentrations, 1:3 dilution, three times; read-out: HB3-gametocytes IC50
[10] = strain profiling; 11 concentrations, 1:3 dilution, three times; read-out: Dd2-gametocytes IC50
[11] = read-out: Gametocyte IC50, P. falciparum 3D7 gametocytes, mean of at least 3 independent experiments
[12] = read-out: HB3-gametocytes IC50; strain profiling; 11 concentrations, 1:3 dilution, three times
[13] = read-out: Dd2-gametocytes IC50; strain profiling; 11 concentrations, 1:3 dilution, three times

- IC50 in HepG2 cells (HepG2 cells): Inactive
Compound: COc1ccc(C2NC(=S)N3C(c4ccc(OC)c(OC)c4)NC(=S)N23)cc1OC (stereo not drawn) [NSC174938]

- IC50 [1, 6]: 22.4 µM
Compound: CO[C@]12C[C@@H](COC(=O)c3cncc(Br)c3)CN(C)[C@@H]1Cc1cn(C)c3cccc2c13 [Nicergoline, reference compound]
- Emax [1, 5]: 39.4%
- Activity against asexual parasites Efficacy (% response) [2]: inactive
- Activity against asexual parasites IC50 [2]: inactive

- IC50 [1, 6]: 28.2 µM
Compound: CCN(CC)C(=O)N[C@H]1C[C@@H]2c3cccc4[nH]cc(c34)C[C@H]2N(C)C1 [Terguride, reference compound]
- Emax [1, 5]: 80.7%
- Activity against asexual parasites Efficacy (% response) [2]: inactive
- Activity against asexual parasites IC50 [2]: inactive

- IC50 [1, 6]: 12.6 µM
- IC50 [1, 7]: 22.4 µM
Compound: CN1C[C@H](CNC(=O)OCc2ccccc2)C[C@@H]2c3cccc4c3c(cn4C)C[C@H]21 [Metergoline, reference compound]
- Activity against asexual parasites Efficacy (% response) [2]: -71.24 % response
- IC50 [2]: 12.6 µM

- IC50 [1, 6]: 19.9 µM
Compound: CN(CCCN1c2ccccc2CCc2ccccc21)CC(=O)c1ccc(Cl)cc1 [Lofepramine hydrochloride, reference compound]
- Emax [1, 5]: 103%
- Activity against asexual parasites Efficacy (% response) [2]: -103.99 % response
- IC50 [2]: 10 µM

- IC50 [1, 6]: 5.62 µM
- IC50 [1, 7]: 10 µM
Compound: CN(C)CCC=C1c2ccccc2C=Cc2ccccc21 [Cyclobenzaprine hydrochloride, reference compound]
- Emax [1, 5]: 94.8%
- Activity against asexual parasites Efficacy (% response) [2]: inactive
- Activity against asexual parasites IC50 [2]: inactive

- IC50 [1, 6]: 22.4 µM
- Activity against gametocytes IC50 ([1]; SI Table 3, structure clusters): inactive
Compound: CCCN1C[C@H](CSC)C[C@@H]2c3cccc4[nH]cc(c34)C[C@H]21 [Pergolide methanesulfonate, reference compound]
- Emax [1, 5]: 83.5%
- Activity against asexual parasites Efficacy (% response) [2]: inactive
- Activity against asexual parasites IC50 [2]: inactive

- Activity against gametocytes IC50 ([1]; SI Table 3, structure clusters): inactive
Compound: NC(=O)N1c2ccccc2CC(=O)c2ccccc21 [Oxcarbazepine, reference compound]
- Activity against gametocytes Efficacy (% response) ([1]; SI Table 3, structure clusters): inactive
- Activity against asexual parasites Efficacy (% response) [2]: inactive
- Activity against asexual parasites IC50 [2]: inactive

- IC50 [1, 8]: 0.935 µM
- IC50 [3, 9]: 0.332 µM
- IC50 [4, 10]: 1.48 µM
- IC50 in HepG2 cells (HepG2 cells): Inactive
Compound: COc1ncc(-c2ccc3nccc(-c4ccnnc4)c3c2)cc1NS(=O)(=O)c1ccc(F)cc1F [GSK-458]
- % Max response (HepG2 cells): 33%

- IC50 [1, 6]: 22.4 µM
- Activity against gametocytes IC50 ([1]; SI Table 3, structure clusters): inactive
Compound: CC(CN(C)C)CN1c2ccccc2CCc2ccccc21 (stereo not drawn) [Trimipramine maleate, reference compound]
- Emax [1, 5]: 47%
- Activity against asexual parasites IC50 [2]: inactive
- IC50 [2]: 30.7 µM

- IC50 ([1]; Plasmodium falciparum, 3D7, read-out: Activity against gametocytes IC50, SI Table 3, structure clusters): 22.4 µM
Compound: CN(C)CCCN1c2ccccc2C(C)(C)c2ccccc21 [Dimetacrine, reference compound]
- Emax ([1]; Plasmodium falciparum, 3D7, read-out: Activity against gametocytes Efficacy (% response), SI Table 3, structure clusters): 77%
- Activity against asexual parasites Efficacy (% response) [2]: inactive
- Activity against asexual parasites IC50 [2]: inactive

- IC50 [1, 6]: 35.5 µM
Compound: CN1C[C@@H](NS(=O)(=O)N(C)C)C[C@@H]2c3cccc4c3c(cn4C)C[C@H]21 [Mesulergine, reference compound]
- Emax [1, 5]: 64%
- Activity against asexual parasites Efficacy (% response) [2]: inactive
- Activity against asexual parasites IC50 [2]: inactive

- IC50 [1, 7]: 35.5 µM
Compound: CN(C)CCC=C1c2ccccc2C(C)(C)c2ccccc21.Cl [Melitracen hydrochloride, reference compound]
- Activity against gametocytes Efficacy (% response) ([1]; SI Table 3, structure clusters): -103.56 % response
- Activity against asexual parasites Efficacy (% response) [2]: inactive
- Activity against asexual parasites IC50 [2]: inactive

- IC50 [1, 6]: 17.8 µM
Compound: C=CCN1C[C@H](C(=O)N(CCCN(C)C)C(=O)NCC)C[C@@H]2c3cccc4[nH]cc(c34)C[C@H]21 [Cabergoline, reference compound]
- Emax [1, 5]: 80.1%
- Activity against asexual parasites Efficacy (% response) [2]: -63.65 % response
- IC50 [2]: 17.8 µM

Continued, compound first:

Compound: CN1CCC(=C2c3ccccc3C=Cc3ccccc32)CC1 [Cyproheptadine]
- Activity against gametocytes Efficacy (% response) ([1]; SI Table 3, structure clusters): -122.81 % response
- Activity against asexual parasites Efficacy (% response) [2]: inactive
- Activity against asexual parasites IC50 [2]: inactive

Compound: CN(C)CCCN1c2ccccc2CCc2ccc(Cl)cc21 [Clomipramine]
- Activity against asexual parasites Efficacy (% response) [2]: inactive
- Activity against asexual parasites IC50 [2]: inactive

Compound: CC(=O)OC[C@H]1O[C@@H]([S-])[C@H](OC(C)=O)[C@@H](OC(C)=O)[C@@H]1OC(C)=O.CCP(CC)CC.[Au+] [Auranofin]
- IC50 [1, 8]: 0.935 µM
- IC50 [3, 9]: 1.05 µM
- IC50 [4, 10]: 1.18 µM
- % Max response (HepG2 cells): -98%
- IC50 (HepG2 cells): 9.35 µM

Compound: CN1CCC(=C2c3ccccc3C=Cc3ccccc32)CC1 [Cyproheptadine hydrochloride]
- Activity against gametocytes Efficacy (% response) ([1]; SI Table 3, structure clusters): -80.99 % response
- Activity against asexual parasites Efficacy (% response) [2]: inactive
- Activity against asexual parasites IC50 [2]: inactive

Compound: CC1(C)OC2=C(C(=O)c3ccccc3C2=O)[C@H](NCc2ccccc2)[C@@H]1O [CAY10581]
- IC50 [1, 8]: 0.743 µM
- IC50 [3, 9]: 0.662 µM
- IC50 [4, 10]: 2.35 µM
- % Max response (HepG2 cells): -86%
- IC50 (HepG2 cells): 17.1 µM

Compound: COC(=O)C[C@](O)(CCCC(C)(C)O)C(=O)O[C@@H]1C(OC)=C[C@]23CCCN2CCc2cc4c(cc2[C@H]13)OCO4 [Omacetaxine]
- IC50 [1, 8]: 0.083 µM
- IC50 in HepG2 cells (HepG2 cells): Curve not complete
- % Max response (HepG2 cells): -27%

Compound: CNCCCN1c2ccccc2CCc2ccccc21 [Desipramine hydrochloride]
- Emax [1, 5]: 101%
- Activity against asexual parasites Efficacy (% response) [2]: inactive
- Activity against asexual parasites IC50 [2]: inactive

Compound: Monensin sodium
- IC50 [1, 11]: 0.254 µM
- IC50 [3, 12]: 0.264 µM
- IC50 [4, 13]: 0.372 µM
- IC50 in HepG2 cells (HepG2 cells): Inactive
- % Max response (HepG2 cells): 40%

Compound: CNCCC=C1c2ccccc2CCc2ccccc21 [Nortriptyline hydrochloride, reference compound]
- Emax [1, 5]: 111%
- IC50 [1, 6]: 22.4 µM
- IC50 [1, 7]: 35.5 µM
- Activity against asexual parasites Efficacy (% response) [2]: inactive
- Activity against asexual parasites IC50 [2]: inactive

Compound: Plicamycin
- IC50 [1, 11]: 0.833 µM
- IC50 [3, 12]: 2.96 µM
- IC50 [4, 13]: 2.35 µM
- IC50 in HepG2 cells (HepG2 cells): Inactive
- % Max response (HepG2 cells): 3%

Compound: CN(C)CCCN1c2ccccc2CCc2ccccc21 [Imipramine hydrochloride]
- Activity against asexual parasites Efficacy (% response) [2]: inactive
- Activity against asexual parasites IC50 [2]: inactive

Compound: CN(C)CCCN1c2ccccc2CCc2ccc(Cl)cc21 [Clomipramine hydrochloride]
- Activity against asexual parasites Efficacy (% response) [2]: inactive
- Activity against asexual parasites IC50 [2]: inactive

Compound: CNCCCC1c2ccccc2C=Cc2ccccc21 [Protriptyline hydrochloride]
- Emax [1, 5]: 81.7%
- Activity against asexual parasites Efficacy (% response) [2]: inactive
- Activity against asexual parasites IC50 [2]: inactive

Compound: CN(C)CCC=C1c2ccccc2CCc2ccccc21 [Amitriptyline hydrochloride]
- Activity against asexual parasites Efficacy (% response) [2]: -82.37 % response
- IC50 [2]: 11.2 µM

Compound: CCCCN(CCCC)CC(O)c1cc(Cl)cc2c1-c1ccc(Cl)cc1/C2=C/c1ccc(Cl)cc1 (stereo not drawn) [Lumefantrine]
- Emax [1, 5]: 76.5%
- IC50 ([1]; Plasmodium falciparum, 3D7, strain profiling, 11 concentrations, 1:3 dilution, three times, read-out: 3D7-gametocytes IC50): 0.059 µM
- IC50 ([3]; Plasmodium falciparum, HB3, strain profiling; 11 concentrations, 1:3 dilution, three times; read-out: HB3-gametocytes IC50): 0.033 µM
- IC50 ([4]; Plasmodium falciparum, DD2, strain profiling; 11 concentrations, 1:3 dilution, three times; read-out: Dd2-gametocytes IC50): 0.013 µM
- Activity against asexual parasites Efficacy (% response) [2]: -93.57 % response
- IC50 [2]: 0.02 µM
